Structures are written as SMILES. “And” between values parts separate entries of the source, which are not always exact repeats. Equal entries are not always repeated.

For data set [1] the following is noted: n-octanol/PBS pH 7.4, shake flask. The procedure: The n-octanol/water distribution coefficients for each radioligand were determined using the shake-flask method. Each experiment was conducted in triplicate. To initiate the experiment, 30 µL of the labeling mixture was combined with 570 µL of PBS (pH 7.4) and 600 µL of n-octanol in a 1.5 mL Eppendorf-Tube. The resulting mixture was shaken at room temperature at 1500 rpm for 5 min before undergoing centrifugation. An aliquot was extracted from each phase, and radioactivity was measured on a γ-counter (ISOMED 2160). Subsequently, mean values were calculated and adjusted for background activity. The log D7.4 value was determined utilizing the equation: logD7.4=logAn-octanol/APBS

For data set [2], the target named is PD-L1 (Homo sapiens, UniProt Q9NZQ7). As to the kind of experiment: Real-time radioligand binding (LigandTracer) on PC3 PD-L1 overexpressing cells, without BSA. Also noted: expressed in transfected cells; host or cells: PC3 PD-L1 overexpressing cells. The following applies: for Kd: PC3 PD-L1 overexpressing cells, room temperature, without BSA; for ka: association rate constant; for ka / kd: real-time binding; for kd: dissociation rate constant. The procedure: For the saturation binding experiments, cells were detached with 0.05% Trypsin–EDTA (Gibco, USA), and counted (CASY1 cell counter, Schaerfe System, Reutlingen, Germany). Cells were then diluted in medium to ~ 160,000 cells/mL and seeded in 48 well plates (Falcon Multiwell #353078, ThermoFisher, Karlsruhe, Germany) for at least 2 days prior to saturation binding experiments. For real-time radioligand binding, approximately 400,000 cells/mL were seeded into one side of petri dishes (3 mL, Nunclon, # 150350, ThermoFisher Germany) ~ 24 h before the experiments.
Chain of PD-L1 (Q9NZQ7 19-290): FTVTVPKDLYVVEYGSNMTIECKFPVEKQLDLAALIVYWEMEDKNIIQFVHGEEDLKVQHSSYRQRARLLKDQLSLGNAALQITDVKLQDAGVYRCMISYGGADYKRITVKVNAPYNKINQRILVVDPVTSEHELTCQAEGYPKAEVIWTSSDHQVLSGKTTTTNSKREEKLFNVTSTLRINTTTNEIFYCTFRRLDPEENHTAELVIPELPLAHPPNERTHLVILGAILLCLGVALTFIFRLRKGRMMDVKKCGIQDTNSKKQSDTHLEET
To investigate binding kinetics, including the association rate constant (ka) and dissociation rate constant (kd), as well as the dissociation constant (KD), a real-time assay system (LigandTracer Yellow or LigandTracer White, Ridgeview Instruments AB, Uppsala, Sweden) was utilized. The petri dish contained attached cells in medium (3 mL) on one side, while radioactivity was detected on the opposing side. The petri dish is set upon an inclined base, allowing continuous measurement of alternating portions of the dish for bound radioligand (cells) compared to the background signal (no cells). Binding experiments were carried out at room temperature using CO2-independent medium (Gibco #18045088, ThermoFisher Germany).
The association phase consisted of incubation with two concentrations (30 and 90 nM, each for 90 min) of our ^64Cu-labeled PD-L1-radioligands, binding to PC3 PD-L1 overexpressing cells. Following this, the incubation medium was replaced with fresh medium, and the dissociation phase was monitored for a minimum of 2 h. […] Data were recorded as decay-corrected counts per second (CPS). Subsequently, binding data were analyzed using TraceDrawer software (version 1.9.2, Ridgeview Instruments AB, Uppsala, Sweden). Traces were imported, potential spikes (instances of sudden CPS increases exceeding 100% of the previous data point) were eliminated, and each trace was normalized to its own baseline (set as 0%) and its maximum value (set as 100%).

For orientation: Kd means a measure of binding affinity in units of concentration. Low readings indicate higher affinity, high ones lower affinity. Turning to `Cc1c(COc2cc(OCc3cncc(S(C)(=O)=O)c3)c(CN[C@@H](CS(=O)(=O)O)C(=O)NCCS(=O)(=O)O)cc2Br)cccc1-c1cccc(OCc2cn(CCCN3CCN(C(=O)[C@H](CS(=O)(=O)O)NC(=O)CC[C@H](C(=O)[O-])N4CCN(CC(=O)[O-])CCN(CC(=O)[O-])CC4)CC3)nn2)c1C.[64Cu+2]` [[^64Cu]Cu-14], the “Log D7.4” value in data set [1] is on record as “–3.00 ± 0.03”. Moreover, in data set [2], the dissociation constant Kd is ~20 nM and 23.3 nM; the ka entry was “(5.06 ± 0.25) × 10^3 (M × s)^–1”; the kd entry was “(1.17 ± 0.06) × 10^–4 s^–1”.

`Cc1c(COc2cc(OCc3cncc(S(C)(=O)=O)c3)c(CN[C@@H](CS(=O)(=O)O)C(=O)NCCS(=O)(=O)O)cc2Br)cccc1-c1cccc(OCc2cn(CCCN3CCN(C(=O)[C@H](CS(=O)(=O)O)NC(=O)CCCC(=O)NC45CNCCNCC(N)(CNCCNC4)CNCCNC5)CC3)nn2)c1C.[64Cu+2]` [[^64Cu]Cu-16]: the “Log D7.4” value in data set [1] is “–2.79 ± 0.02”. For the same molecule, in data set [2], the Kd was determined as 24.2 ± 0.93 nM, the ka entry was “(5.55 ± 0.31) × 10^3 (M × s)^–1” and the kd entry was “(1.35 ± 0.09) × 10^–4 s^–1”.

The record behind these values is article PMC10876507, “Chelator impact: investigating the pharmacokinetic behavior of copper-64 labeled PD-L1 radioligands” (EJNMMI Radiopharmacy and Chemistry, 2024).
